These results are taken from the NIST ThermoML archive (doi:10.1021/je900653p).

For this data set the following is noted: Crystal.

Numbers after ± are expanded uncertainties.

For the compound `C=C1CC[C@H]2C[C@@H]1C2(C)C` [(1S,5S)-6,6-dimethyl-2-methylenebicyclo[3.1.1]heptane], the Normal melting temperature is -61.5 ± 0.8 °C.

Turning to `C=C1C2CCC(C2)C1(C)C` (centres undefined) [2,2-dimethyl-3-methylenebicyclo[2.2.1]heptane], the Normal melting temperature amounted to 51.1 ± 0.8 °C.

On to `Cc1ccc(C(C)C)cc1` [1-(1-methylethyl)-4-methylbenzene], for which the Normal melting temperature is -68.5 ± 0.8 °C.

For `CC12CCC(CC1)C(C)(C)O2` [1,3,3-trimethyl-2-oxabicyclo[2.2.2]octane], the Normal melting temperature was determined as 1.2 ± 1.2 °C.
